Measurements published in patent US9043995B2, “Transgenic fish and uses thereof” (CITY UNIVERSITY OF HONG KONG, priority 2010, dated 2015).
“Also recorded” adds a separate entry of the source.

Assays:
[1] = system: transgenic medaka fish larvae (omChgH promoter-EGFP); assay: Binary exposure with E2: change of the liver GFP signal induced by 17β-estradiol in transgenic medaka larvae (agonism / anti-estrogen activity); assay type: in vivo, Oryzias melastigma; conditions: for effect on estrogenic activity / liver GFP signal induced by 17β-estradiol: binary exposure with E2
Method: Another method of the present invention relates to a method of screening for a compound having anti-estrogenic activity.
(§1) In response to different concentrations of estrogen or estrogen-like chemical substances, transgenic fish expresses varying quantity of EGFP protein which is presented as varying GFP signal intensity under fluorescence microscope. […] To quantify the estrogen-like activity of test solution, fluorescent image of fish liver is recorded using a camera connected with the fluorescence microscope. Liver GFP signal intensity can then be measured using some image analysis software such as Metamorph (Universal Imaging). To reduce the interference of fish autofluorescence, only fish liver area was selected for the analysis. The average signal intensity of the manually marked area calculated using the same software was regarded as GFP signal intensity. Fish liver photos recorded using the same image parameter setting can be compared directly using GFP signal intensity, those photos recorded using varying image parameter settings can also be compared as long as each group contain a common reference control.
6-acetyl-1,1,2,4,4,7-hexamethyltetraline (AHTN) is one of the most widely used polycyclic musk. This compound is used as a fragrance ingredient in cosmetics and household cleaning products. According to HERA Risk Assessment reports in 2004, AHTN is produced in an annual volume of 1000 to 5000 tons in one Netherland and UK plant, respectively. According to HERA Risk Assessments, AHTN is not toxic to humans basing on present daily consumption. However, the ubiquitous distribution, high accumulation in environment (A Peck et al. Environ Sci Technol. 40: 5629-5635 (2006)), and bioaccumulation in organisms including human beings (H Nakata et al. Environ Sci Technol. 41: 2216-2222 (2007); S Lignell et al. Environ Sci Technol. 42: 6743-6748 (2008)) raise the concern of scientists. AHTN is found to be estrogen antagonist (RHMM Schreurs et al. Environ Sci Technol. 38: 997-1002 (2004); RHMM Schreurs et al. Toxicol Sci. 83: 264-272 (2005)). The estrogen antagonist activity of AHTN can also be very easily evaluated using transgenic medaka fish of present invention. Just expose transgenic medaka fish larvae to E2 (e.g. 0.04 μM) or E2 incombination with AHTN (e.g. 5 μM) for a period of time (e.g. 24 hours), and then measure the GFP signal intensity induced by E2 with/without the presence of AHTN.

[2] = system: transgenic brackish medaka larvae (omChgH promoter-EGFP); assay: Estrogen-like activity: induced liver GFP signal in omChgH promoter-EGFP transgenic brackish medaka fish exposed to test solution; assay type: in vivo, Oryzias melastigma; conditions: for induction of GFP expression in the liver, compound alone: transgenic O. melastigma fish/larvae; for induction of liver GFP expression: transgenic brackish medaka larvae, at nM level; for GFP signal in the liver: phytoestrogens separately, high concentrations, 48 hours
Method: A generalized exposure regimen is established in the present art. FIG. 4 presents an example of using transgenic fish larvae to analyze the estrogen-like activity of a test solution. Exposure of transgenic brackish medaka fish (preferably yolk-sac larvae fish) to test solution (containing estrogen or estrogenic substances) is performed at 28° C. The exposure usually takes 24-48 hours. After exposure, the fish will be deposited on the inner side of a petri-dish cover with a small drop of test solution left. The induced EGFP expression in the fish liver will be observed under fluorescence microscope. Yolk-sac larvae are small, exposure can be carried out in utensils like 96-well plate, 24-well plate, petri-dish and so on to save test reagents. Additionally, newly hatched larvae are the most transparent stage, and the transparence can keep up to 15 days after hatch. After 15 days, the larvae will be gradually less transparent due to the development of muscle. The transgenic fish larvae of 1 to 15 days after hatch have similar estrogen sensitivity (FIG. 5).
as §1
Estrone (E1), 17β-estradiol (E2) and estriol (E3) are natural steroid estrogens. […] Of them, E2 has been intensively studied, and is commonly used as a standard estrogen to evaluate the estrogen-like activity of testing reagents. Using transgenic larvae of present invention, induced GFP signal by E2 can usually be observed within 24 hours, and the GFP signal increases with the increasing concentration of E2. At higher E2 concentrations (e.g., 102 or 1020 nM), induced GFP signal intensity can even be observed within 4 hours after onset of exposure, and the signal increases with exposure time (FIG. 8), and reaches saturation within 24 hours. At low E2 concentrations, however, it will take longer for the induced GFP signal to accumulate to become detectable. Thus, by exposing transgenic brackish medaka fish larvae to different concentrations of E2 for a period of time (such as 24 hours), imaging the GFP expressing liver, and then measuring the induced liver GFP signal intensity using image analysis software, a standard curve correlating GFP signal intensity and E2 concentration can be established (GFP-E2 standard curve; FIG. 9). Using the same regimen, and also include one known E2 concentration exposure as reference, the estrogen-like activity of test reagents can then be evaluated as estrogen potency equivalent by referring the induced liver GFP signal to that of GFP-E2 standard curve.

Structure (SMILES) | effect on estrogenic activity / liver GFP signal induced by 17β-estradiol [1] | induction of GFP expression in the liver, compound alone [2] | GFP signal in the liver [2] | further results
CC(=O)c1cc2c(cc1C)C(C)(C)C(C)CC2(C)C (stereo not drawn) [AHTN, 6-acetyl-1,1,2,4,4,7-hexamethyltetraline] | decreased |  |  | GFP signal induced by E2 in the presence of AHTN ([1]; E2 0.04 μM, AHTN 5 μM, 24 hours): weaker GFP signal
COc1ccc(C(=O)CC(=O)c2ccc(C(C)(C)C)cc2)cc1 [BMDM, 4-tert-Butyl-4′-methoxydibenzoylmethane] | estrogen agonism | cannot induce the GFP expression |  | 
CC(C)(c1ccc(O)cc1)c1ccc(O)cc1 [BPA, bisphenol A] |  | can also induce GFP expression |  | 
C[C@]12CC[C@@H]3c4ccc(O)cc4CC[C@H]3[C@@H]1CC[C@@H]2O [E2, 17β-estradiol, reference compound] |  |  |  | time until induced GFP signal can be observed, higher E2 concentrations ([2]; 102 or 1020 nM, after onset of exposure): ≤ 4 h; induced expression of transgene GFP in the liver ([2]; embryo, larva and male fish): can also be induced; time until GFP signal reaches saturation ([2]; higher E2 concentrations (102 or 1020 nM)): ≤ 24 h; induction of liver GFP expression [2]: can induce liver GFP expression; time until induced GFP signal can be observed ([2]; transgenic larvae, E2 exposure): ≤ 24 h
C[C@]12CC[C@@H]3c4ccc(O)cc4CC[C@H]3[C@@H]1C[C@@H](O)[C@@H]2O [E3, estriol, reference compound] |  |  |  | induction of liver GFP expression [2]: can induce liver GFP expression
CC1CC(OC(=O)c2ccccc2O)CC(C)(C)C1 (stereo not drawn) [HMS, homosalate] | can enhance the estrogenic activity of 17β-estradiol in a dose-dependent manner; also recorded: increased | cannot induce the GFP expression |  | 
CCCCCCCCCc1ccc(O)cc1 [NP, 4-nonyphenol] |  | can also induce GFP expression |  | 
CCCCC(CC)COC(=O)c1ccc(N(C)C)cc1 (stereo not drawn) [OD-PABA, octyl dimethyl PABA] | estrogen agonism | cannot induce the GFP expression |  | 
O=c1c(-c2ccc(O)cc2)coc2cc(O)ccc12 [daidzein] |  |  | weak GFP signal | 
O=c1c(-c2ccc(O)cc2)coc2cc(O[C@@H]3O[C@H](CO)[C@@H](O)[C@H](O)[C@H]3O)ccc12 [daidzin] |  |  | weak GFP signal | 
C#C[C@]1(O)CC[C@H]2[C@@H]3CCc4cc(OC)ccc4[C@H]3CC[C@@]21C [ethinylestradiol 3-methyl ether, reference compound] |  |  |  | induced liver GFP signal compared with E2 ([2]; same concentration (nM), same period (24 hours)): stronger than that induced by E2
O=c1c(-c2ccc(O)cc2)coc2cc(O)cc(O)c12 [genistein] |  |  | weak GFP signal | 
O=c1c(-c2ccc(O)cc2)coc2cc(O[C@@H]3O[C@H](CO)[C@@H](O)[C@H](O)[C@H]3O)cc(O)c12 [genistin] |  |  | weak GFP signal | 
